Assay results from patent US5955572A, “Structural mimics of RGD-binding sites” (La Jolla Cancer Research Foundation, priority 1998, dated 1999).
Where a SMILES comes first, the peptide text is derived from it. Bridges are numbered along the chain shown (N, C = ends).

Biological target: T1, β3 (109-133) peptide (Homo sapiens, UniProt P05106)
T1 construct: made in house; host or cells: chemical synthesis
T1 sequence (P05106 135-159 limits assumed): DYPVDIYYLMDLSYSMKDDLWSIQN
Experiment: RGD-phage binding to peptides from the β3 integrin subunit
Conditions: titration experiments (not shown); read-out: concentration giving 50% inhibition of RGD-binding to β3 (109-133)

- IC50: ~1000 nM
SMILES: CC(C)C[C@@H]1NC(=O)[C@H](Cc2c[nH]c3ccccc23)NC(=O)CNC(=O)[C@H](CC(=O)O)NC(=O)[C@H](CC(=O)O)NC(=O)[C@H](Cc2c[nH]c3ccccc23)NC(=O)[C@@H](N)CSSC[C@@H](C(=O)O)NC1=O (H-CWDDGWLC-OH; disulfide 1-8)
